Key:
[1] = target: T1, VEGFR-2 tyrosine kinase (Homo sapiens, UniProt P35968); experiment: In vitro VEGFR-2 tyrosine kinase assay (BPS Bioscience); format: biochemical; settings: for inhibition at 10 µM: read-out: VEGFR-2 % inhibition, 10 μM concentration
T1 construct: purchased BPS Bioscience 40301
Protocol: The VEGFR tyrosine kinase assays were performed at BPS Bioscience (www.bpsbioscience.com). All the synthesised compounds representing the six series were evaluated for their ability to inhibit VEGFR-2 tyrosine kinase at single dose of 10 µM.
The VEGFR tyrosine kinase activity at single dose concentration of 10 μM was carried out by BPS Bioscience (www.bpsbioscience.com). VEGFR (BPS#40301) served as the enzyme source and Poly (Glu, Tyr) sodium salt, (4:1, Glu:Tyr) (Sigma#P7244) served as the standardized substrate & Kinase-Glo Plus Luminescence kinase assay kit (Promega#V3772). The IC50 determination was carried out where quality control testing is routinely performed on each of the targets to insure compliance to acceptable standards. ^33P-ATP was purchased from Perkin Elmer and ADP-Glo^TM was purchased from Promega. All other materials were of standard laboratory grade.
The VEGFR tyrosine kinase activity was performed using Kinase-Glo Plus luminescence kinase assay kit (Promega). It measures kinase activity by quantitating the amount of ATP remaining in solution following a kinase reaction. The luminescent signal from the assay is correlated with the amount of ATP present and is inversely correlated with the amount of kinase activity. The compounds were diluted to 100 μM in 10% DMSO and […] of the dilution was added to a […] reaction so that the final concentration of DMSO is 1% in all of reactions. All of the enzymatic reactions were conducted at 30 °C for 40 min. The 50 μl reaction mixture contains […], pH 7.4, […], 0.1 mg/ml BSA, 0.2 mg/ml Poly (Glu, Tyr) substrate, 10 μM ATP and VEGFR. After the enzymatic reaction, […] of Kinase-GloPlus Luminescence kinase assay solution (Promega) was added to each reaction and incubate the plate for 5 min at room temperature. Luminescence signal was measured using a BioTek Synergy 2 microplate reader. The protein kinase assays used to determine IC50 value were performed using ADP-GloTM assay kit from Promega which measures the generation of ADP by the protein kinase. Generation of ADP by the protein kinase reaction leads to an increase in luminescence signal in the presence of ADP-GloTM assay kit. The assay was started by incubating the reaction mixture in a 96-well plate at 30 °C for 30 min. After the 30 min incubation period, the assay was terminated by the addition of […] of ADP-GloTM Reagent (Promega). The 96 well plate was shaken and then incubated for 40 min at ambient temperature. […] of Kinase detection reagent was added, the 96-well reaction plate was then read using the ADP-Glo Luminescences Protocol on a GloMax plate reader (Promega: Catalog #E7031). Blank control was set up that included all the assay components except the addition of appropriate substrate (replace with equal volume of kinase assay buffer). The corrected activity for each protein kinase target was determined by removing the blank control value.
VEGFR activity assays were performed in duplicate at each concentration. The luminescence data were analyzed using the computer software, Graphpad Prism. The difference between luminescence intensities in the absence of VEGFR (Lut) and in the presence of VEGFR (Luc) was defined as 100% activity (Lut - Luc). […] IC50 determination for inhibitor against VEGFR was estimated by generating a graph of log inhibitor vs normalized response with variable using the Prism software.

[2] = system: MCF-7; experiment: In vitro cytotoxic activity, SRB assay; format: cell-based; settings: Homo sapiens, MCF7; MCF-7, 48h
Protocol: (§1) In addition, compounds (12a, 12b, 12c, 16b, 16c and 17b) were evaluated against a third cell line (HepG-2) These first two cell lines were selected based on the sensitivity of the previously NCI-tested derivatives towards them amongst the 60 NCI panel. The growth inhibition is expressed as the median growth inhibitory concentration (IC50) which corresponds to the concentration required for 50% inhibition of cell viability and are provided in (Table S6 in supplementary material).
(§2) 5,000 cells in fresh medium were seeded in 96-well microlitre plates and left to attach for 24h. Cells were incubated with the tested compounds at concentration range from 0,1,2.5,5,10 µg/ml and incubation was continued for48h. After 48h treatment,the cells were fixed with 50µl cold 50% trichloroacetic acid (TCA )for 1h at 4 °C. Wells were then washed 5 times with water and stained for 30 min at room temperature with 50µl of 0.4%SRB dissolved in 1% acetic acid. The wells were then washed 4 times with 1% acetic acid. The plates were air dried and the dye was solubilized with 100µl/well of 10mM tris base (pH 10.5) for 5min on a shaker (Orbital Shaker OS 20,Boeco,Germany) at 1600 rpm. The optical density (O.D.)of each well was measured spectrophotometrically at 564 nm with an enzyme linked immunosorbent assay( ELIZA) micraplate reader (Tecan Sunrise,Austria).The mean back ground absorbance was subtracted automatically and mean values for each drug concentration was calculated.
(§3) The percentage of cell survival was calculated as follows:
(§4) Survival fraction =O.D.(treated cells)/O.D.(control cells)
(§5) The IC50 value (the concentration required to produce 50% inhibition of cell growth) was calculated using sigmodial dose response curve-fitting models (GraphPad,Prizm software incorporated). Each concentration was repeated 3 times.

[3] = system: HCT-116; experiment: In vitro cytotoxic activity, SRB assay; format: cell-based; settings: Homo sapiens; HCT-116, 48h
Protocol: as §1, §2, §3, §4, §5

[4] = system: HepG-2; experiment: In vitro cytotoxic activity, SRB assay; format: cell-based; settings: Homo sapiens, HepG2; HepG-2, 48h
Protocol: as §1, §2, §3, §4, §5

T1 sequence (P35968 20-1356): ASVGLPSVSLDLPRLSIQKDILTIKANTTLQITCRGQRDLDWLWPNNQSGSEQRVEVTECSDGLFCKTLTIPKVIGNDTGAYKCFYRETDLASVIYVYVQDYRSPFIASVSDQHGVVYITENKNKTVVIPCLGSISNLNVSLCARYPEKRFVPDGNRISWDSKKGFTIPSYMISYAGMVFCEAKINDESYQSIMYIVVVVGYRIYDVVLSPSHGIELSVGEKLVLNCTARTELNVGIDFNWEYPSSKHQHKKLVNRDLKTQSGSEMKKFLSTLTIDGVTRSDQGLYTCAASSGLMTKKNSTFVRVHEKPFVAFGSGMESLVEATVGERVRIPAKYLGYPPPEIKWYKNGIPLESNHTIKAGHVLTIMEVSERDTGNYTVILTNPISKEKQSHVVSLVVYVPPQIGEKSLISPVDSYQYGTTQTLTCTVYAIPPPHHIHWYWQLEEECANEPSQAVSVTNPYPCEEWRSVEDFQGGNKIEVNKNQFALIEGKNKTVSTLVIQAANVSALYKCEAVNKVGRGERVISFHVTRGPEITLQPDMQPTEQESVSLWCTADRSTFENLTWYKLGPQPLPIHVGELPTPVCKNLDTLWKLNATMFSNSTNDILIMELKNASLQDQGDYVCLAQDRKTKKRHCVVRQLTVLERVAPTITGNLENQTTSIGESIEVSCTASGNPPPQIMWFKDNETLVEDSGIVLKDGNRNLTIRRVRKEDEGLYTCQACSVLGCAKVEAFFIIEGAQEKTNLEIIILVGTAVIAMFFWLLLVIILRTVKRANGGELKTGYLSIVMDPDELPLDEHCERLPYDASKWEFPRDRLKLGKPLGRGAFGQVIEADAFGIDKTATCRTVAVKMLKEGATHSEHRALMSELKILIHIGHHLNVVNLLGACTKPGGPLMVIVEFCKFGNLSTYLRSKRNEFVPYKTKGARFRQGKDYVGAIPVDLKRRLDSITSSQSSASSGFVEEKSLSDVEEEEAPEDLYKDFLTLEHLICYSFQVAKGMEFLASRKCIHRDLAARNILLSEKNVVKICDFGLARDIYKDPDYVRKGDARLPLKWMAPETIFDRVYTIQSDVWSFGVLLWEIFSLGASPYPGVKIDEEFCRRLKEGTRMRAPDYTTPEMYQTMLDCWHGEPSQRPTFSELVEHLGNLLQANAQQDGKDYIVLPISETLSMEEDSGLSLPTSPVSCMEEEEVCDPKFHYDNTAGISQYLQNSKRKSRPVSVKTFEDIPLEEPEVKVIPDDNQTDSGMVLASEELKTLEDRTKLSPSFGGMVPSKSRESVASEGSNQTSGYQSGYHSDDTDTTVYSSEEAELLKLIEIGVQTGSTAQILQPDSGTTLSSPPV

With `O=C(Nc1ccc(Nc2nncc3ccccc23)cc1)c1ccccc1` [Compound 5a, N-(4-(Phthalazin-1-ylamino)phenyl)benzamide] the inhibition at 10 µM [1] was 4%, the melting point was 142 to 144 °C and the IC50 [2] was over 1000 µM. For the same molecule, the IC50 [3] was 977 µM.
Work on `Cc1nnc(Nc2ccc(NC(=O)c3ccccc3)cc2)c2ccccc12` [Compound 5c, N-(4–(4-Methylphthalazin-1-ylamino)phenyl)benzamide] yielded an inhibition at 10 µM [1] of 12%, a melting point of 283 to 285 °C and an IC50 [2] of 22.9 µM. The IC50 [3] was 15 µM.
`O=C(Nc1ccccc1)Nc1ccc(Nc2nncc3ccccc23)cc1` [Compound 6a, 1-Phenyl-3–(4-(phthalazin-1-ylamino)phenyl)urea] showed an inhibition at 10 µM [1] of 13%, a melting point of 145 to 147 °C and an IC50 [2] of 67.6 µM. For the same molecule, the IC50 [3] was 91.2 µM.
Work on `O=C(Nc1ccc(Nc2nncc3ccccc23)cc1)Nc1ccc(Cl)c(C(F)(F)F)c1` [Compound 6c, 1–(4-Chloro-3-(trifluoromethyl)phenyl)-3–(4-(phthalazin-1-ylamino)phenyl)urea] yielded an IC50 ([1]; 10 μM ATP/0.2 mg/ml poly-Glu-Tyr) of 13.4 µM, an inhibition at 10 µM [1] of 70% and a melting point of 288 to 291 °C. It also gave an IC50 [2] of 6.2 µM and an IC50 [3] of 6 µM.
`Cc1nnc(Nc2ccc(NC(=O)Nc3ccccc3)cc2)c2ccccc12` [Compound 6d, 1–(4-(4-Metyhlphthalazin-1-ylamino)phenyl)3-phenylurea] showed an inhibition at 10 µM [1] of 15%, a melting point of 284 to 286 °C and an IC50 [2] of 67.6 µM. For the same molecule, the IC50 [3] was 57.5 µM.
With `Cc1nnc(Nc2ccc(NC(=O)Nc3ccc(Cl)c(C(F)(F)F)c3)cc2)c2ccccc12` [Compound 6f, 1–(4-Chloro-3-(trifluoromethyl)phenyl)-3–(4-(4-methylphthalazin-1-ylamino)phenyl)-urea] the inhibition at 10 µM [1] was 32%, the melting point was 258 to 260 °C and the IC50 [2] was 3.2 µM. The IC50 [3] was 3.1 µM.
`O=C(Nc1ccccc1)Nc1ccc(Oc2nncc3ccccc23)cc1` [Compound 7a, 1-Phenyl-3–(4-(phthalazin-1-yloxy)phenyl)urea] gave an inhibition at 10 µM [1] of 5% and a melting point of 180 to 182 °C.
With `O=C(Nc1ccc(Oc2nncc3ccccc23)cc1)Nc1ccc(Cl)c(C(F)(F)F)c1` [Compound 7c, 1–(4-Chloro-3-(trifluoromethyl)phenyl)-3–(4-(phthalazin-1-yloxy)phenyl)urea] the inhibition at 10 µM [1] was 47%, the melting point was 158 to 160 °C and the IC50 [2] was 2.5 µM. The IC50 [3] was 2.6 µM.
For `Cc1nnc(Oc2ccc(NC(=O)Nc3ccccc3)cc2)c2ccccc12` [Compound 7d], the inhibition at 10 µM [1] was 10%, the melting point was 174 to 176 °C and the IC50 [2] was 7.8 µM. It also gave an IC50 [3] of 7.2 µM.
In the case of `Cc1nnc(Oc2ccc(NC(=O)Nc3ccc(Cl)c(C(F)(F)F)c3)cc2)c2ccccc12` [Compound 7f, 1–(4-Chloro-3-(trifluoromethyl)phenyl)-3–(4-(4-metyhlphthalazin-1-yloxy)phenyl)urea], the inhibition at 10 µM [1] is reported as 21%, the melting point is reported as 150 to 152 °C and the IC50 [2] is reported as 31 µM. It also gave an IC50 [3] of 49 µM.
Work on `c1ccc(N2CCN(c3nncc4ccccc34)CC2)cc1` [Compound 8b, 1–(4-Phenylpiperazin-1-yl)phthalazine] yielded an inhibition at 10 µM [1] of 8%, a melting point of 242 to 244 °C and an IC50 [2] of 363 µM. The IC50 [3] was 550 µM.
`Fc1ccccc1N1CCN(c2nncc3ccccc23)CC1` [Compound 8c, 1–(4-(2-Fluorophenyl)piperazin-1-yl)phthalazine] gave an inhibition at 10 µM [1] of 9%, a melting point of 88 to 90 °C and an IC50 [2] of 32.4 µM. It also gave an IC50 [3] of 42.7 µM.
For `O=C(c1ccco1)N1CCN(c2nncc3ccccc23)CC1` [Compound 8e, Furan-2-yl-(4-(phthalazin-1-yl)piperazin-1-yl)methanone], the inhibition at 10 µM [1] was 9%, the melting point was 90 to 92 °C and the IC50 [2] was 190 µM. It also gave an IC50 [3] of 513 µM.
In the case of `Cc1nnc(N2CCN(C(=O)c3ccco3)CC2)c2ccccc12` [Compound 8j, Furan-2-yl-(4–(4-methylphthalazin-1-yl)piperazin-1-yl)methanone], the inhibition at 10 µM [1] is reported as 10%, the melting point is reported as 90 to 92 °C and the IC50 [2] is reported as 479 µM. It also gave an IC50 [3] of 479 µM.
Work on `O=C(Nc1ccccc1)Nc1ccc(Nc2nnc(Cl)c3ccccc23)cc1` [Compound 12a, 1–(4-(4Chlorophthalazin-1-ylamino)phenyl)-3-phenylurea] yielded an inhibition at 10 µM [1] of 26%, a melting point of 225 to 227 °C and an IC50 [2] of 81.3 µM. It also gave an IC50 [4] of over 1000 µM and an IC50 [3] of 479 µM.
Work on `Clc1ccc(Nc2nnc(CNc3cccc(Cl)c3)c3ccccc23)cc1` [Compound 16b, N-(4-Chlorophenyl)-4-((3-chlorophenylamino)methyl)phthalazin-1-amine] yielded an inhibition at 10 µM [1] of 21%, a melting point of 164 to 166 °C and an IC50 [2] of 91 µM. It also gave an IC50 [4] of 77.6 µM and an IC50 [3] of 28.8 µM.
Molecule `Cc1cccc(NCc2nnc(Nc3ccc(Cl)cc3)c3ccccc23)c1` [Compound 16c, N-(4-Chlorophenyl)-4-((m-tolylamino)methyl)phthalazin-1-amine] has an inhibition at 10 µM [1] of 19%, a melting point of 130 to 132 °C and an IC50 [2] of over 1000 µM. It also gave an IC50 [4] of over 1000 µM and an IC50 [3] of 257 µM.
Work on `Cc1cccc(OCc2nnc(Nc3ccc(Cl)cc3)c3ccccc23)c1` [Compound 17b, N-(4-Chlorophenyl)-4-(m-tolyloxymethyl)phthalazin-1-amine] yielded an inhibition at 10 µM [1] of 15%, a melting point of 193 to 195 °C and an IC50 [2] of 13.5 µM. For the same molecule, the IC50 [4] was 39 µM and the IC50 [3] was 38 µM.
`COc1cccc2c1C(=O)c1c(O)c3c(c(O)c1C2=O)C[C@@](O)(C(=O)CO)C[C@@H]3O[C@H]1C[C@H](N)[C@H](O)[C@H](C)O1` [Dox, doxorubicin, reference compound] gave an IC50 [2] of 0.9 µM, an IC50 [4] of 0.5 µM and an IC50 [3] of 0.62 µM.
